Laboratory results: article PMC4885039, “A Scorpion Defensin BmKDfsin4 Inhibits Hepatitis B Virus Replication in Vitro” (Toxins, 2016)
Residues, ends and D or L forms follow the SMILES beside them.

Key:
HepG2.2.15 cells = assay: MTT cytotoxicity assay, HepG2.2.15; format: cell-based, human; conditions: 48 h, 0 to 200 μM, five repetitions
Procedure: Cells were seeded in 96-well plates (10^4 cells per well) and cultured in DMEM containing 10% FBS in 5% CO2 at 37 °C for 12 h. Then, peptides were added to the medium in a serial of concentrations. The concentrations ranged from 0 to 200 μM. Five repetitions were set for each concentration. After 48 h of incubation, 20 μL of MTT solution (5 mg/mL in PBS buffer; Invitrogen, Foster, CA, USA) was added to the medium in each well, and the plate was incubated in 5% CO2 at 37 °C for 4 h. Then, the medium was replaced by 100 μL DMSO. To completely dissolve the precipitated crystal purple formazan, the plate was then gently shaken for 10 min at room temperature. The absorbance at a wavelength of 570 nm was measured using a microplate reader (BioTek, Winooski, VT, USA).

human erythrocytes = assay: Hemolysis assay; format: cell-based; conditions: 37 °C, 1 h, absorbance at 570 nm, 0 to 200 μM
Procedure: Erythrocytes were obtained from fresh human blood by centrifugation for 10 min at 1000× g. After washed by HEPES buffer for three times, erythrocytes were resuspended in normal saline and seeded in 96-well plates (10^7 cells per well). BmKDfsin4 was added in a serial of concentrations, 0.1% triton-X100 was used as positive control and normal saline was used as negative control. After incubated at 37 °C for 1 h, the supernatants were collected by centrifugation for 10 min at 1000× g. The absorbance of hemoglobin was measured at a wavelength of 570 nm.

HBsAg = assay: Western blot of intracellular HBsAg in HepG2.2.15 cell lysates; format: cell-based, Hepatitis B virus; conditions: 10 μM, HepG2.2.15 cell lysate
Procedure: (§1) Cells were resuspended with radioimmunoprecipitation (RIPA) assay buffer (50 mM Tris-HCl (pH 7.5), 150 mM sodium chloride, 1% Nonidet P40, and 0.5% sodium deoxycholate) with phenylmethylsulfonyl fluoride (PMSF) and incubated on ice for 30 min for fully lysis. Cell lysates were electrophoresed in sodium dodecyl sulfate-polyacrylamide (SDS) gels and transferred to nitrocellulose membranes (Millipore, Darmstadt, Germany). The antibodies used for probing were as follows: mouse monoclonal anti-HBsAg (1:200 dilution, Abcam, Cambridge, UK), rabbit polyclonal anti-HBV core (1:500 dilution, Dako-Cytomation, Carpinteria, CA, USA), mouse monoclonal anti-Hep B xAg (1:200 dilution, Santa Cruz Biotechnology, Dallas, TX, USA), mouse monoclonal anti-Hep B Pol (1:200 dilution, Santa Cruz Biotechnology, Dallas, TX, USA), and anti-β-actin (1:5000 dilution, Santa Cruz Biotechnology, Dallas, TX, USA) were used as primary antibodies, and the secondary antibodies were conjugated to horseradish peroxidase (HRP).

HBx protein = assay: Western blot of intracellular HBx protein in HepG2.2.15 cell lysates; format: cell-based, Hepatitis B virus; conditions: HepG2.2.15 cell lysate
Procedure: as §1

HBV core = assay: Western blot of intracellular HBV core in HepG2.2.15 cell lysates; format: cell-based, Hepatitis B virus; conditions: HepG2.2.15 cell lysate
Procedure: as §1

HBV RT = assay: Western blot of intracellular HBV RT in HepG2.2.15 cell lysates; format: cell-based, Hepatitis B virus; conditions: HepG2.2.15 cell lysate
Procedure: as §1

Compound: CC[C@H](C)[C@@H]1NC(=O)[C@H](CO)NC(=O)[C@H](CCC(N)=O)NC(=O)[C@@H]2CSSC[C@@H](C(=O)N[C@@H](Cc3ccc(O)cc3)C(=O)N[C@@H](CCCNC(=N)N)C(=O)O)NC(=O)[C@H](C(C)C)NC(=O)[C@@H]3CSSC[C@H](NC(=O)[C@H](CCC(N)=O)NC(=O)CNC(=O)[C@H](CCC(N)=O)NC(=O)[C@H](CC(N)=O)NC(=O)[C@H](Cc4ccccc4)NC(=O)[C@@H]4CCCN4C(=O)[C@@H](NC(=O)CNC(=O)[C@H](Cc4ccccc4)NC(=O)CN)CSSC[C@H](NC(=O)[C@H](Cc4ccc(O)cc4)NC(=O)CNC(=O)CNC(=O)[C@H](CCCNC(=N)N)NC(=O)[C@H](CCCNC(=N)N)NC(=O)[C@H](CCCNC(=N)N)NC1=O)C(=O)N[C@@H](CC(=O)O)C(=O)NCC(=O)N[C@@H](Cc1ccccc1)C(=O)N[C@@H](CC(C)C)C(=O)N[C@@H](CCCCN)C(=O)N[C@@H]([C@@H](C)O)C(=O)N[C@@H](CCCNC(=N)N)C(=O)N3)C(=O)N[C@@H](Cc1c[nH]cn1)C(=O)N[C@@H](CCCCN)C(=O)N[C@@H](Cc1c[nH]cn1)C(=O)N2 [BmKDfsin4] (HELM PEPTIDE1{G.F.G.C.P.F.N.Q.G.Q.C.H.K.H.C.Q.S.I.R.R.R.G.G.Y.C.D.G.F.L.K.T.R.C.V.C.Y.R}$PEPTIDE1,PEPTIDE1,4:R3-25:R3|PEPTIDE1,PEPTIDE1,11:R3-33:R3|PEPTIDE1,PEPTIDE1,15:R3-35:R3$$$V2.0; N-terminus and C-terminus assumed; bridges inferred)
- CC50 (50% cytotoxicity concentration), HepG2.2.15 (HepG2.2.15 cells): 167.82 µM
- HC50 (50% hemolysis concentration) (human erythrocytes): 66.85 µM
- intracellular HBsAg level (HBsAg): almost undetectable
- intracellular HBx protein level (HBx protein; 5 μM): only a slight band
- intracellular HBx protein level (HBx protein; 10 μM): totally undetectable
- inhibitory activity against intracellular HBV core (HBV core): significantly concentration-dependent inhibition
- inhibitory activity against intracellular HBV RT (HBV RT): significantly concentration-dependent inhibition
